In patent publication US6784176B2, “Solvates of pymetrozine” (priority 1999, dated 2004) one finds water taken up and water release data, which are given here for one compound.

The nature of this series: Reversible water uptake and release of pymetrozine at defined relative humidity. The format is physicochemical. The settings on record: room temperature. The text has this: The above-mentioned water content of 16 to 17% by weight corresponds very well to a dihydrate. Even pesticidal formulations that contain water-free and solvent-free pymetrozine take up usually water or the corresponding solvent from the atmosphere when left to stand under sufficiently high vapour pressure.

For `CC1=NNC(=O)N(/N=C/c2cccnc2)C1` [pymetrozine], for the setting “relative humidity between 60% and 70%”, the water taken up lay within 16 to 17 % by weight. In addition, the water release result (relative humidity of less than ca. 10%, water-containing pymetrozine) was “gives up the water completely”.
